Source: ChEMBL document CHEMBL3046614, “Overexpression of the sterol 14α-demethylase gene (MgCYP51) in Mycosphaerella graminicola isolates confers a novel azole fungicide sensitivity phenotype” (Pest Manag Sci, 2012)
In brackets after ≈: the same amount, converted by molar mass. Activity calls are given as the source filed them. The calls are words filed in the database; no cut-off is given here.

Tests used:
Zymoseptoria tritici [1] = assay: Fungicidal activity against Zymoseptoria tritici isolate TAG74-3 with 120 bp insertion expressing CYP51 variant with combination of L50S, S188N, I381V, deltaY459/G460 and N513K mutations assessed as fungal growth inhibition; assay type: functional, organism-based
Zymoseptoria tritici [2] = assay: Fungicidal activity against Zymoseptoria tritici isolate IPO323 without 120 bp insertion expressing wild type CYP51 assessed as fungal growth inhibition; assay type: functional, organism-based
Zymoseptoria tritici [3] = assay: Fungicidal activity against Zymoseptoria tritici isolate OP7 with 120 bp insertion expressing CYP51 variant with combination of L50S, S188N, I381V, deltaY459/G460 and N513K mutations assessed as fungal growth inhibition; assay type: functional, organism-based
Zymoseptoria tritici [4] = assay: Fungicidal activity against Zymoseptoria tritici isolate OP6 without 120 bp insertion expressing CYP51 variant with combination of L50S, S188N, I381V, deltaY459/G460 and N513K mutations assessed as fungal growth inhibition; assay type: functional, organism-based
Zymoseptoria tritici [5] = assay: Fungicidal activity against Zymoseptoria tritici isolate TAG1-18 with 120 bp insertion expressing CYP51 variant with combination of L50S, S188N, I381V, deltaY459/G460 and N513K mutations assessed as fungal growth inhibition; assay type: functional, organism-based
Zymoseptoria tritici [6] = assay: Fungicidal activity against Zymoseptoria tritici isolate R03-54 without 120 bp insertion expressing CYP51 variant with combination of L50S, S188N, I381V, deltaY459/G460 and N513K mutations assessed as fungal growth inhibition; assay type: functional, organism-based
Zymoseptoria tritici [7] = assay: Fungicidal activity against Zymoseptoria tritici isolate R03-29 without 120 bp insertion expressing CYP51 variant with combination of L50S, S188N, I381V, deltaY459/G460 and N513K mutations assessed as fungal growth inhibition; assay type: functional, organism-based
Zymoseptoria tritici [8] = assay: (§1) Fungicidal activity against Zymoseptoria tritici isolate R10-13 without 120 bp insertion expressing CYP51 variant with combination of L50S, S188N, I381V, deltaY459/G460 and N513K mutations inoculated on compound pre-treated wheat cultivar Riband seedlings assessed as fungal DNA level at 39.06 ppm measured 21 days post fungal inoculation; assay type: functional
Zymoseptoria tritici [9] = assay: as §1, with “OP7 with” for “R10-13 without”; assay type: functional
Zymoseptoria tritici [10] = assay: Fungicidal activity against Zymoseptoria tritici isolate V18 with 120 bp insertion expressing CYP51 variant with combination of L50S, S188N, I381V, deltaY459/G460 and N513K mutations assessed as fungal growth inhibition; assay type: functional, organism-based
Zymoseptoria tritici [11] = assay: as §1, with “TAG74-3 with” for “R10-13 without”; assay type: functional
Zymoseptoria tritici [12] = assay: as §1, with “TAG74-3 with” for “R10-13 without”, “doses > 1/16 recommended field rate” for “39.06 ppm”; assay type: functional, organism-based
Zymoseptoria tritici [13] = assay: as §1, with “OP7 with” for “R10-13 without”, “pycnidia formation” for “fungal DNA level”; assay type: functional, organism-based
Zymoseptoria tritici [14] = assay: as §1, with “OP6” for “R10-13”; assay type: functional
Zymoseptoria tritici [15] = assay: as §1, with “TAG74-3 with” for “R10-13 without”, “pycnidia formation” for “fungal DNA level”; assay type: functional, organism-based
Zymoseptoria tritici [16] = assay: as §1, with “TAG74-3 with” for “R10-13 without”, “pycnidia formation” for “fungal DNA level”, “doses > 1/16 recommended field rate” for “39.06 ppm”; assay type: functional, organism-based
Zymoseptoria tritici [17] = assay: as §1, with “OP7 with” for “R10-13 without”, “pycnidia formation” for “fungal DNA level”, “doses > 1/16 recommended field rate” for “39.06 ppm”; assay type: functional, organism-based
Zymoseptoria tritici [18] = assay: as §1, with “OP7 with” for “R10-13 without”, “doses > 1/16 recommended field rate” for “39.06 ppm”; assay type: functional, organism-based
Zymoseptoria tritici [19] = assay: Fungicidal activity against Zymoseptoria tritici isolate R10-13 without 120 bp insertion expressing CYP51 variant with combination of L50S, S188N, I381V, deltaY459/G460 and N513K mutations assessed as fungal growth inhibition; assay type: functional, organism-based
Zymoseptoria tritici [20] = assay: as §1, with “OP6” for “R10-13”, “28.13” for “39.06”; assay type: functional
Zymoseptoria tritici [21] = assay: as §1, with “TAG74-3 with” for “R10-13 without”, “28.13” for “39.06”; assay type: functional
Zymoseptoria tritici [22] = assay: as §1, with “28.13” for “39.06”; assay type: functional
Zymoseptoria tritici [23] = assay: as §1, with “OP7 with” for “R10-13 without”, “28.13” for “39.06”; assay type: functional
Zymoseptoria tritici [24] = assay: as §1, with “OP7 with” for “R10-13 without”, “pycnidia formation” for “fungal DNA level”, “28.13” for “39.06”; assay type: functional, organism-based
Zymoseptoria tritici [25] = assay: as §1, with “TAG74-3 with” for “R10-13 without”, “pycnidia formation” for “fungal DNA level”, “28.13” for “39.06”; assay type: functional, organism-based

| SMILES | EC50 (Zymoseptoria tritici [1]) | EC50 (Zymoseptoria tritici [2]) | EC50 (Zymoseptoria tritici [3]) | EC50 (Zymoseptoria tritici [4]) | EC50 (Zymoseptoria tritici [5]) | EC50 (Zymoseptoria tritici [6]) | EC50 (Zymoseptoria tritici [7]) | EC50 (Zymoseptoria tritici [10]) | EC50 (Zymoseptoria tritici [19]) | further results |
| --- | --- | --- | --- | --- | --- | --- | --- | --- | --- | --- |
| O=C(Nc1ccccc1-c1ccc(Cl)cc1)c1cccnc1Cl [BOSCALID] | 0.719 µg/mL | 0.554 µg/mL (≈ 1.61 µM) | 0.808 µg/mL | 0.841 µg/mL | 0.976 µg/mL | 0.766 µg/mL | 0.21 µg/mL | – | – | – |
| Fc1ccc([C@]2(Cn3cncn3)O[C@H]2c2ccccc2Cl)cc1 [EPOXICONAZOLE] | 1.41 µg/mL | 0.0015 µg/mL (≈ 0.00455 µM) | 0.819 µg/mL | 0.085 µg/mL | 0.911 µg/mL | 0.092 µg/mL | 0.067 µg/mL | 0.759 µg/mL | 0.091 µg/mL | Activity (Zymoseptoria tritici [8]): 400 pg; Activity (Zymoseptoria tritici [9]): 1600 pg; Activity (Zymoseptoria tritici [11]): 9284 pg; Activity (Zymoseptoria tritici [12]): Active; Activity (Zymoseptoria tritici [13]): inactive; Activity (Zymoseptoria tritici [14]): 14 pg; Activity (Zymoseptoria tritici [15]): inactive; Activity (Zymoseptoria tritici [16]): Active; Activity (Zymoseptoria tritici [17]): Active; Activity (Zymoseptoria tritici [18]): Active |
| CC1(C)CCC(Cc2ccc(Cl)cc2)C1(O)Cn1cncn1 (stereo not drawn) [METCONAZOLE] | 1.39 µg/mL | < 0.0002 µg/mL | 0.821 µg/mL | 0.051 µg/mL | 0.602 µg/mL | – | 0.032 µg/mL | – | 0.097 µg/mL | Activity (Zymoseptoria tritici [20]): 65 pg; Activity (Zymoseptoria tritici [21]): 1600 pg; Activity (Zymoseptoria tritici [22]): 106 pg; Activity (Zymoseptoria tritici [12]): Active; Activity (Zymoseptoria tritici [23]): 5674 pg; Activity (Zymoseptoria tritici [24]): inactive; Activity (Zymoseptoria tritici [25]): inactive; Activity (Zymoseptoria tritici [16]): Active; Activity (Zymoseptoria tritici [17]): Active; Activity (Zymoseptoria tritici [18]): Active |
| CCCN(CCOc1c(Cl)cc(Cl)cc1Cl)C(=O)n1ccnc1 [PROCHLORAZ] | 0.624 µg/mL | 0.015 µg/mL (≈ 0.0398 µM) | 0.229 µg/mL | 0.019 µg/mL | 0.294 µg/mL | 0.025 µg/mL | 0.077 µg/mL | 0.239 µg/mL | 0.049 µg/mL | – |
| OC(Cc1ccccc1Cl)(Cn1cncn1)C1(Cl)CC1 (stereo not drawn) [PROTHIOCONAZOLE-DESTHIO] | 0.221 µg/mL | 0.00187 µg/mL (≈ 0.00599 µM) | 0.135 µg/mL | 0.0126 µg/mL | 0.12 µg/mL | 0.0055 µg/mL | 0.0091 µg/mL | 0.126 µg/mL | 0.0111 µg/mL | – |
| CC(C)(C)C(O)(CCc1ccc(Cl)cc1)Cn1cncn1 (stereo not drawn) [TEBUCONAZOLE] | 20.7 µg/mL | 0.041 µg/mL (≈ 0.133 µM) | 8.22 µg/mL | 1.24 µg/mL | 7.81 µg/mL | 1.5 µg/mL | 2.7 µg/mL | 15.4 µg/mL | 2.34 µg/mL | – |
| CN(C/C=C/C#CC(C)(C)C)Cc1cccc2ccccc12 [TERBINAFINE] | 0.061 µg/mL | 0.047 µg/mL (≈ 0.161 µM) | 0.045 µg/mL | 0.048 µg/mL | 0.053 µg/mL | – | 0.063 µg/mL | 0.053 µg/mL | 0.082 µg/mL | – |
